A word on the inhibition: it is the drop in the measured response relative to a control, in per cent. As a reminder, the Ki is the dissociation constant of the complex between target and ligand, obtained from inhibition or displacement. Higher therefore signals lower affinity.

Inhibition and Ki data for one compound are collected here from ChEMBL document CHEMBL4507291 (2021).

For experiment [1], the target named is Calcium/calmodulin-dependent protein kinase kinase 1 (Homo sapiens) (UniProt Q8N5S9). Put plainly: CAMKK1 (CAMKKA) Kinase screen. The settings on record: Compound concentration 1.0 uM.
Sequence of Calcium/calmodulin-dependent protein kinase kinase 1 (Homo sapiens) (Q8N5S9 whole entry, looked up): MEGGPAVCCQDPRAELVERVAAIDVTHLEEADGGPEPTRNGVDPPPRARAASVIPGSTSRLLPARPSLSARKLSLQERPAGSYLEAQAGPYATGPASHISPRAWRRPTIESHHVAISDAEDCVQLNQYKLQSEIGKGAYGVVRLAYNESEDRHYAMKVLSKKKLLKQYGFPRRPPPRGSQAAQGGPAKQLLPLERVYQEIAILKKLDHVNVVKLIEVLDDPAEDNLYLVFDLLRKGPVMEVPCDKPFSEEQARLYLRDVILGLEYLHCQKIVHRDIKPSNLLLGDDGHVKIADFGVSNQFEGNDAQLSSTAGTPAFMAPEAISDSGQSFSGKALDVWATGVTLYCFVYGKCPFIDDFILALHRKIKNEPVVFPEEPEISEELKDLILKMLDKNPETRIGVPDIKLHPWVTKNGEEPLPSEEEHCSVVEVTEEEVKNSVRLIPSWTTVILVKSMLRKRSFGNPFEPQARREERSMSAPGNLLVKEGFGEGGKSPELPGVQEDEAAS
Experiment [2] deals with Sphingosine kinase 2 (Homo sapiens) (UniProt Q9NRA0). Put plainly: SPHK2 Kinase screen. The settings on record: Compound concentration 1.0 uM.
Sequence of Sphingosine kinase 2 (Homo sapiens) (Q9NRA0 whole entry): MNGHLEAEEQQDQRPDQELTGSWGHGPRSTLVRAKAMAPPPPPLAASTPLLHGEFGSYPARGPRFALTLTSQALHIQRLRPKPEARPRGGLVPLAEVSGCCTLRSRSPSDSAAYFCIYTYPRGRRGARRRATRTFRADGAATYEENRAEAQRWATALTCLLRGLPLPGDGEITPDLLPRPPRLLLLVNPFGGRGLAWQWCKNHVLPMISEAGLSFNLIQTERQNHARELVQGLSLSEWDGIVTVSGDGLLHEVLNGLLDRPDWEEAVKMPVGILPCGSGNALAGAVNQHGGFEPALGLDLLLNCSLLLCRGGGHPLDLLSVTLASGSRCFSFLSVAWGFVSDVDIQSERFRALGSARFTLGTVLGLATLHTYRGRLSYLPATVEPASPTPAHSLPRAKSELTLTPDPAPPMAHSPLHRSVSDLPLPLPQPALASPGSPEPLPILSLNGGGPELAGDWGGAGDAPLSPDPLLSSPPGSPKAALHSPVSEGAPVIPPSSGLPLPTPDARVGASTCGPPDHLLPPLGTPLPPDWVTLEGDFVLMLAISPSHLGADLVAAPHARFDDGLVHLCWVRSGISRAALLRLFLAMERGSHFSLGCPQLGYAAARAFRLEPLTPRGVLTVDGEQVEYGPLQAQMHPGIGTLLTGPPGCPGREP
Experiment [3] concerns the target Activin receptor type-2B (Homo sapiens) (UniProt Q13705). As to the kind of experiment: ACVR2B Kinase screen. The settings on record: Compound concentration 1.0 uM.
The target in experiment [4] is T1, Serine/threonine-protein kinase BRSK1 (Homo sapiens) (UniProt Q8TDC3).
T1 sequence (whole entry): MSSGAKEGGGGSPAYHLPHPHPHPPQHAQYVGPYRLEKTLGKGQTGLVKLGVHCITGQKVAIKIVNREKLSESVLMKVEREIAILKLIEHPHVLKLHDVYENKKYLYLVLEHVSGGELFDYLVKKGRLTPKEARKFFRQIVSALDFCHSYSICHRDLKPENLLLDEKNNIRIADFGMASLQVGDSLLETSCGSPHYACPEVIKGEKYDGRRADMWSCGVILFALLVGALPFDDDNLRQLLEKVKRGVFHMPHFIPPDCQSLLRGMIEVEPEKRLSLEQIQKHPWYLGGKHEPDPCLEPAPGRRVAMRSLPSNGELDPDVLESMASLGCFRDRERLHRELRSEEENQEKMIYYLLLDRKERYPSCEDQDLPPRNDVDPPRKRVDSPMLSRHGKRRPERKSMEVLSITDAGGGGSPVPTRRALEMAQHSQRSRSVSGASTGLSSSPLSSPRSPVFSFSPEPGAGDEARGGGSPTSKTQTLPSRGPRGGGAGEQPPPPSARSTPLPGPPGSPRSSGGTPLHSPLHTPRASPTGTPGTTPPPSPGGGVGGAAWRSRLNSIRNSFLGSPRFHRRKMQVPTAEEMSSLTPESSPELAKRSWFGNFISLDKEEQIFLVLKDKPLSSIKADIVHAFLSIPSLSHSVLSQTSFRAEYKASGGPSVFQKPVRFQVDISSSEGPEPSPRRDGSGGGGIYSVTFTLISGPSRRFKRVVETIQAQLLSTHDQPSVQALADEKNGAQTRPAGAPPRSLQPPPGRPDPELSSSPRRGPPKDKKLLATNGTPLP
As to the kind of experiment: BRSK1 (SAD1) Kinase screen. The settings on record: Compound concentration 1.0 uM.

For experiment [5], the target named is Dual specificity mitogen-activated protein kinase kinase 1 (Homo sapiens) (UniProt Q02750). As to the kind of experiment: MAP2K1 (MEK1) Kinase screen. Conditions: Compound concentration 1.0 uM.
Sequence of Dual specificity mitogen-activated protein kinase kinase 1 (Homo sapiens) (Q02750 whole entry): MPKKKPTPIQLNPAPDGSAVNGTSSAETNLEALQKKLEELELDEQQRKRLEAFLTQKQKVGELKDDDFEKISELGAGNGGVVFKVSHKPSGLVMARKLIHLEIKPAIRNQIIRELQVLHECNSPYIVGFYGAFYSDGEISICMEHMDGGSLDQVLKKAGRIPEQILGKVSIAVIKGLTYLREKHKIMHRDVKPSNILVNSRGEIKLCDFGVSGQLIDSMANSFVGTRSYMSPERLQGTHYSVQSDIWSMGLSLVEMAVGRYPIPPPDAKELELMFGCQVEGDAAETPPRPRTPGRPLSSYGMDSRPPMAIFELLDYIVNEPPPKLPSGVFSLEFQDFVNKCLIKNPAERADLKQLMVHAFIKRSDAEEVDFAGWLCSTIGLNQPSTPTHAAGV
The target of experiment [6] is Mitogen-activated protein kinase kinase kinase kinase 5 (Homo sapiens) (UniProt Q9Y4K4). Put plainly: MAP4K5 (KHS1) Kinase screen. Conditions: Compound concentration 1.0 uM.
Sequence of Mitogen-activated protein kinase kinase kinase kinase 5 (Homo sapiens) (Q9Y4K4 whole entry, looked up): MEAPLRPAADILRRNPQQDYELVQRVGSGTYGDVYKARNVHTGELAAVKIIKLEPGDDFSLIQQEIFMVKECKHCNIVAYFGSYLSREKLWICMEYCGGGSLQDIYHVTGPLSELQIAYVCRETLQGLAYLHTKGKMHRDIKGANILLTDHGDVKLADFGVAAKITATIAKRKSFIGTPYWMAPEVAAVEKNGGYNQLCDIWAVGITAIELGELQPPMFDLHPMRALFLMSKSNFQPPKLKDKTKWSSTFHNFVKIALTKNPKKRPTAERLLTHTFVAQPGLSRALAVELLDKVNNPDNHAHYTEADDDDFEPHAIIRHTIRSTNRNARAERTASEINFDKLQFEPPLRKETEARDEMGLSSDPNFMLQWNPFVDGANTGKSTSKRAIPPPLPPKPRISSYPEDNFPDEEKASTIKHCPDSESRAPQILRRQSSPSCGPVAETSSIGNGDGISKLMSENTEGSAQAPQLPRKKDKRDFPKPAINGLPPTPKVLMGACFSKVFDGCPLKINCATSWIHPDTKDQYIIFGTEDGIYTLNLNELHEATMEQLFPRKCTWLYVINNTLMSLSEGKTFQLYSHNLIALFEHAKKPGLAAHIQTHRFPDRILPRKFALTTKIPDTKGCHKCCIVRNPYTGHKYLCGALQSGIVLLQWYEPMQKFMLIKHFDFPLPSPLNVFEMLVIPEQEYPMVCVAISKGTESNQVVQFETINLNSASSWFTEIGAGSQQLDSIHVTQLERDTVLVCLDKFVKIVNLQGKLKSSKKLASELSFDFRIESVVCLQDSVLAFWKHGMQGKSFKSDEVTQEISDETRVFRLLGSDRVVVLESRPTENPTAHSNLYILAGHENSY
Experiment [7] concerns the target T2, MAP/microtubule affinity-regulating kinase 4 (Homo sapiens) (UniProt Q96L34).
T2 sequence (whole entry): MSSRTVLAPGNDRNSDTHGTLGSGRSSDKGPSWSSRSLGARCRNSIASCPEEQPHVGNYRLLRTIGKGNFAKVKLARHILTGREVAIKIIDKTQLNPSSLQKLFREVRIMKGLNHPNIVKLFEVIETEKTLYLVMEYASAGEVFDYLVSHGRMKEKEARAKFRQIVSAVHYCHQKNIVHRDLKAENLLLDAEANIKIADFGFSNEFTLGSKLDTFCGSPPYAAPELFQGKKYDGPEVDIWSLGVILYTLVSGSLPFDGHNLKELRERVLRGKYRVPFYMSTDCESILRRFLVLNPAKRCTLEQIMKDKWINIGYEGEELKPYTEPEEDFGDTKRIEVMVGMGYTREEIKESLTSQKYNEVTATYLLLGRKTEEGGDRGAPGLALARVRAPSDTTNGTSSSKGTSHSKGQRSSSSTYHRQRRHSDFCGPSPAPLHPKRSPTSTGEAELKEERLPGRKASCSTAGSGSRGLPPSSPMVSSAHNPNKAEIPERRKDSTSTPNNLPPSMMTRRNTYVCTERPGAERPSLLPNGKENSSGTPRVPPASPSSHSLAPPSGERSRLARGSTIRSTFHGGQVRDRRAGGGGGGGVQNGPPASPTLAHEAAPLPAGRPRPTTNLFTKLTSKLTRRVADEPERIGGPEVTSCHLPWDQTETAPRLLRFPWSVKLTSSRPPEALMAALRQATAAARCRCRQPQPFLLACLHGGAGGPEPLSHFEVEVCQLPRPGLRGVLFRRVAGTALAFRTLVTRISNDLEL
Put plainly: MARK4 Kinase screen. Conditions: Compound concentration 1.0 uM.

Experiment [8] has as its target 5-hydroxytryptamine receptor 2B (Homo sapiens, UniProt P41595). Put plainly: Inhibition of Serotonin (5-Hydroxytryptamine) 5-HT2B at compound concentration of 10.0 uM in the Eurofins-Panlabs radioligand binding assay (Eurofins_assay_271700). On the set-up: ligand concentration 1.2 nM, non-specific ligand with concentration 10 uM Serotonin (5-HT), incubation time 60 min, incubation temperature 37 C.

For experiment [9], the target named is Calcium/calmodulin-dependent protein kinase type II subunit beta (Homo sapiens) (UniProt Q13554). As to the kind of experiment: CAMK2B (CaMKII beta) Kinase screen. Conditions: Compound concentration 1.0 uM.
Sequence of Calcium/calmodulin-dependent protein kinase type II subunit beta (Homo sapiens) (Q13554 whole entry): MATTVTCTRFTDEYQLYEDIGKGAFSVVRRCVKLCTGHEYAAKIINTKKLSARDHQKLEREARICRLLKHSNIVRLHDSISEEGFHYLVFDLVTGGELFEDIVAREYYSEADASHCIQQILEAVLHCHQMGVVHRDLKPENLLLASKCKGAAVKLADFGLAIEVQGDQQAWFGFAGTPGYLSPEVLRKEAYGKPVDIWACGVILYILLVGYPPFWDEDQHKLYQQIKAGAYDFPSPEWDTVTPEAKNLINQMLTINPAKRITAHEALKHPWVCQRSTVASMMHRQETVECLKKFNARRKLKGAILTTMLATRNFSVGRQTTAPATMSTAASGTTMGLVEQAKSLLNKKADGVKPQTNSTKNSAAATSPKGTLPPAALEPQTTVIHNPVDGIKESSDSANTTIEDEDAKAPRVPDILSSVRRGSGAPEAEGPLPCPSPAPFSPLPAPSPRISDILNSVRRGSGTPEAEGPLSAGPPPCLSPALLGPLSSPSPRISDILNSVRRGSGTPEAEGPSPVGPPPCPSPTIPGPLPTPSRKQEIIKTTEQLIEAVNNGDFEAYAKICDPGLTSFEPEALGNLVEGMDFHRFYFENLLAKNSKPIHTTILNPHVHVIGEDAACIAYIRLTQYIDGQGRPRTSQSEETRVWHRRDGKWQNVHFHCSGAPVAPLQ
Experiment [10] addresses Dual specificity tyrosine-phosphorylation-regulated kinase 4 (Homo sapiens) (UniProt Q9NR20). As to the kind of experiment: DYRK4 Kinase screen. Conditions: Compound concentration 1.0 uM.
The target of experiment [11] is T3, Alpha-2C adrenergic receptor (Homo sapiens) (UniProt P18825).
T3 sequence (whole entry): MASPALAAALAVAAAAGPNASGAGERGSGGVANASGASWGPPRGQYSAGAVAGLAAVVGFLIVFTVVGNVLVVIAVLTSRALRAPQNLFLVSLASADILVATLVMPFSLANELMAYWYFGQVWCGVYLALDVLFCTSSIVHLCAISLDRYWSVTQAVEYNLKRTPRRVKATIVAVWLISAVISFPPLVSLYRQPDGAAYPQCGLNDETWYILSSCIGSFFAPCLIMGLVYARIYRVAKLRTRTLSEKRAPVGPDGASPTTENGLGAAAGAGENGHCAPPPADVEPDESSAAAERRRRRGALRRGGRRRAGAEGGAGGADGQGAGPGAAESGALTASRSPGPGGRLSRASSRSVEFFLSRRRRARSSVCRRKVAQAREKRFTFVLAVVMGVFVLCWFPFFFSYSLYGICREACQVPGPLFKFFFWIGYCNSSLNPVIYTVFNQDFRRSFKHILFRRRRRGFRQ
As to the kind of experiment: Adrenergic alpha2C Eurofins-Panlabs radioligand binding assay. On the set-up: ligand concentration 1 nM, non-specific ligand with concentration 10 µM WB-4101, incubation time 60 min, incubation temperature 25 °C. Conditions: Compound concentration 10.0 uM.

Sequence of Activin receptor type-2B (Homo sapiens) (Q13705 whole entry): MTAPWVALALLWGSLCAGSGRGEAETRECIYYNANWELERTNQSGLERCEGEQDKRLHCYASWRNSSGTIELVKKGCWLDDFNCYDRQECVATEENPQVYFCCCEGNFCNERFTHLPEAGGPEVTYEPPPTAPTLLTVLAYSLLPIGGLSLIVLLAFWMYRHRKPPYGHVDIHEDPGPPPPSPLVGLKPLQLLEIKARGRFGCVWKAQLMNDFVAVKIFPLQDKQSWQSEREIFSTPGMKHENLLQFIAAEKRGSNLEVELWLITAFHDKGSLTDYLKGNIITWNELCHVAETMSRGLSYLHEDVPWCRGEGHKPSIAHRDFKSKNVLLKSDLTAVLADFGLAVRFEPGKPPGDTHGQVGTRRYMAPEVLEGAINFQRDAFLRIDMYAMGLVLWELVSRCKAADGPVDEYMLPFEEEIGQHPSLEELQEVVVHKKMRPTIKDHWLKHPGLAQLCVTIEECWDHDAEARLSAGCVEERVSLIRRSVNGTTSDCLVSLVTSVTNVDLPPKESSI
Sequence of Dual specificity tyrosine-phosphorylation-regulated kinase 4 (Homo sapiens) (Q9NR20 whole entry): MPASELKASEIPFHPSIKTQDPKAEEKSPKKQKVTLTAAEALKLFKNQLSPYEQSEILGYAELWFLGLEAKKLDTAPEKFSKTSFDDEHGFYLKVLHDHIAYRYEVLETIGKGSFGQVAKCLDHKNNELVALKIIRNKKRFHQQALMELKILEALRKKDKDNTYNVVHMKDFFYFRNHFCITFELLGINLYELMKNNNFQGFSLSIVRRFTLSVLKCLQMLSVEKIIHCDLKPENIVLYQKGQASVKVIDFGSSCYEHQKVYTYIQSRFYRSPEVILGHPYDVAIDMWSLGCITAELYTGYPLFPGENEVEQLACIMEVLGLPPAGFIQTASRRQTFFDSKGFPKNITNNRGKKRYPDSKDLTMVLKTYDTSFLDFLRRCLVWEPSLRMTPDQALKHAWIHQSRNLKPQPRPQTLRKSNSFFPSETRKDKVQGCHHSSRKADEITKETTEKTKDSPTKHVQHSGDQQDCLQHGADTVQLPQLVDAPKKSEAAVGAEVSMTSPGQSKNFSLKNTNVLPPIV
Sequence of 5-hydroxytryptamine receptor 2B (P41595 whole entry): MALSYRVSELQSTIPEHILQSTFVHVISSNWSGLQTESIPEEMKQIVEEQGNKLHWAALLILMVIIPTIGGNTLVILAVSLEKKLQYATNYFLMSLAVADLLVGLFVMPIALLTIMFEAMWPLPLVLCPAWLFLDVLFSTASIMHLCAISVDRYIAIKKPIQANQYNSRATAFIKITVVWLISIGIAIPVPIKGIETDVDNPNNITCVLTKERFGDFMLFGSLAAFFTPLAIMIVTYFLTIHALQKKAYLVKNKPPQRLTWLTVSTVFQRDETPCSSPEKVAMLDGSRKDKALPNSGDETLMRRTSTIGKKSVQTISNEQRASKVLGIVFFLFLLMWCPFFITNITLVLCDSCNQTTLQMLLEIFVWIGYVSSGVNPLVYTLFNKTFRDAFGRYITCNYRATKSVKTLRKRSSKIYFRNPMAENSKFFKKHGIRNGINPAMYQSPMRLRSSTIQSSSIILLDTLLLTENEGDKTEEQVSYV

`C[C@@H]1CN(c2cc(-c3n[nH]c4ccc(OC5(C)CC5)cc34)ncn2)C[C@H](C)O1` [MLi-2]: the inhibition in experiment [1] was 12.6%; in experiment [2] it was -0.739%; in [3] it was -1.21%; in experiment [4], 4.76%; in [5], 8.27%; in experiment [6] it was 3.26%. Besides, the inhibition in [7] was 15.7%; in [9], 12.6%; in [10] it was 1.74%; in [11], 14%. This compound also yielded an inhibition constant (Ki) in experiment [8] of 0.75 µM.
